We go through six compounds from US20250263459A1, “STABILIZED PACAP PEPTIDE” (SENJU PHARMACEUTICAL CO., LTD., priority 2019, published 2025).

Data set [1] can be described thus: Stability test 1: survival rate of peptide in phosphate buffer (pH 7.0) after storage, HPLC. It is filed as physicochemical. The settings on record: 100 μM peptide, 0.1% phosphate buffer pH 7.0, 40° C., 4 weeks (Table 4). How it is done: The 1.0 mM peptide solutions were then diluted with phosphate buffer to 100 μM. […] The prepared peptide solutions were incubated for one month or 2 months in a 40° C. thermostatic bath to obtain stored samples.
Using the total weight of the aqueous peptide solution and storage vessel as the specimen weight, measurements were recorded as the specimen weights before storage and the specimen weights after storage under different storage conditions. The empty weight of the storage vessel was also measured, and the moisture permeability was determined by the following formula.
After stirring the standard sample and the stored samples with a vortex mixer, each peptide solution was transferred to an HPLC vial (Deactivated Qsert vial by Waters Co.). Reverse-phase HPLC (HPLC system: Prominence by Shimadzu Corp.) was conducted under the conditions shown in Table 3 below for analysis of the peptide solutions, and chromatograms were obtained.
The peak area value for the peptide in the chromatogram was calculated, and the survival rate (survival rate before correction for water) was calculated using formula (2). The survival rate after correction for water was also calculated from the survival rate before correction for water using formula (3) to take into account the permeability of the container.
Peptide solutions prepared by the same method as [Measuring sample preparation 1] for the peptides synthesized in Example 2 (peptides 13 to 16) were incubated for 2 weeks and 8 weeks in a thermostatic bath at 40° C. to obtain stored samples.
Peptide solutions prepared by the same method as [Measuring sample preparation 1] for the peptides synthesized in Example 2 (peptides 17 to 21) were incubated for 4 weeks in a thermostatic bath at 40° C. to obtain stored samples.
A peptide solution prepared by the same method as [Measuring sample preparation 1] for peptide 22 synthesized in Example 2 was incubated for 1 week and 4 weeks in a thermostatic bath at 40° C. to obtain stored samples.

Experiment in data set [2]: as above
The settings on record: 100 μM peptide, 0.1% phosphate buffer pH 7.0, head prints 80° C., 8 weeks (Table 4). It is filed as physicochemical.

Non-standard residues stand in square brackets, D forms with d. Residues, ends and D or L forms follow the SMILES beside them. ξ: configuration not given here. ξAla(tetrazol-5-yl) = NC(Cc1nnn[nH]1)C(=O)O; Aib = CC(C)(N)C(=O)O

For `CC[C@H](C)[C@H](NC(=O)CNC(=O)C(Cc1nnn[nH]1)NC(=O)[C@H](CO)NC(=O)[C@@H](N)Cc1c[nH]cn1)C(=O)N[C@@H](Cc1ccccc1)C(=O)N[C@@H](C)C(=O)NC(Cc1nnn[nH]1)C(=O)N[C@@H](C)C(=O)N[C@@H](Cc1ccc(O)cc1)C(=O)N[C@@H](CO)C(=O)N[C@@H](CCCNC(=N)N)C(=O)N[C@@H](Cc1ccc(O)cc1)C(=O)N[C@@H](CCCNC(=N)N)C(=O)N[C@@H](CCCCN)C(=O)N[C@@H](CCC(N)=O)C(=O)N[C@@H](CCSC)C(=O)N[C@@H](C)C(=O)N[C@H](C(=O)N[C@@H](CCCCN)C(=O)N[C@@H](CCCCN)C(=O)N[C@@H](Cc1ccc(O)cc1)C(=O)N[C@@H](CC(C)C)C(=O)N[C@@H](C)C(=O)N[C@@H](C)C(=O)N[C@H](C(=O)N[C@@H](CC(C)C)C(N)=O)C(C)C)C(C)C` (stereo partly drawn) [Peptide 1, HSTzGI FATzAY SRYRK QMAVK KYLAA VL] (H-HS[ξAla(tetrazol-5-yl)]GIFA[ξAla(tetrazol-5-yl)]AYSRYRKQMAVKKYLAAVL-NH2), the “survival rate after correction for water, 40° C. 4 week” value (shortened to “survival rate … 40° C. 4 week”) in data set [1] worked out at 91.1%. Further, the “survival rate after correction for water, 80° C. 8 week” value (from here on “survival rate … 80° C. 8 week”) in data set [2] was determined as 81.5%.

Turning to `CC[C@H](C)[C@H](NC(=O)CNC(=O)C(Cc1nnn[nH]1)NC(=O)[C@H](CO)NC(=O)[C@@H](N)Cc1c[nH]cn1)C(=O)N[C@@H](Cc1ccccc1)C(=O)N[C@@H](C)C(=O)NC(Cc1nnn[nH]1)C(=O)N[C@@H](CO)C(=O)N[C@@H](Cc1ccc(O)cc1)C(=O)N[C@@H](C)C(=O)N[C@@H](CCCNC(=N)N)C(=O)N[C@@H](Cc1ccc(O)cc1)C(=O)N[C@@H](CCCNC(=N)N)C(=O)N[C@@H](CCCCN)C(=O)N[C@@H](CCC(N)=O)C(=O)N[C@@H](CCSC)C(=O)N[C@@H](C)C(=O)N[C@H](C(=O)N[C@@H](CCCCN)C(=O)N[C@@H](CCCCN)C(=O)N[C@@H](Cc1ccc(O)cc1)C(=O)N[C@@H](CC(C)C)C(=O)N[C@@H](C)C(=O)N[C@@H](C)C(=O)N[C@H](C(=O)N[C@@H](CC(C)C)C(N)=O)C(C)C)C(C)C` (stereo partly drawn) [Peptide 2, HSTzGI FATzSY ARYRK QMAVK KYLAA VL] (H-HS[ξAla(tetrazol-5-yl)]GIFA[ξAla(tetrazol-5-yl)]SYARYRKQMAVKKYLAAVL-NH2), in data set [1], the “survival rate … 40° C. 4 week” value was determined as 91.9%. The “survival rate … 80° C. 8 week” value in data set [2] turned out to be 83.7%.

As for `CC[C@H](C)[C@H](NC(=O)CNC(=O)C(Cc1nnn[nH]1)NC(=O)[C@H](CO)NC(=O)[C@@H](N)Cc1c[nH]cn1)C(=O)N[C@@H](Cc1ccccc1)C(=O)N[C@@H](C)C(=O)NC(Cc1nnn[nH]1)C(=O)N[C@@H](CO)C(=O)N[C@@H](Cc1ccc(O)cc1)C(=O)NC(C)(C)C(=O)N[C@@H](CCCNC(=N)N)C(=O)N[C@@H](Cc1ccc(O)cc1)C(=O)N[C@@H](CCCNC(=N)N)C(=O)N[C@@H](CCCCN)C(=O)N[C@@H](CCC(N)=O)C(=O)N[C@@H](CCSC)C(=O)N[C@@H](C)C(=O)N[C@H](C(=O)N[C@@H](CCCCN)C(=O)N[C@@H](CCCCN)C(=O)N[C@@H](Cc1ccc(O)cc1)C(=O)N[C@@H](CC(C)C)C(=O)N[C@@H](C)C(=O)N[C@@H](C)C(=O)N[C@H](C(=O)N[C@@H](CC(C)C)C(N)=O)C(C)C)C(C)C` (stereo partly drawn) [Peptide 5, HSTzGI FATzSY AiRYRK QMAVK KYLAA VL] (H-HS[ξAla(tetrazol-5-yl)]GIFA[ξAla(tetrazol-5-yl)]SY[Aib]RYRKQMAVKKYLAAVL-NH2), in data set [1], the “survival rate … 40° C. 4 week” value is listed as 94.4%. In data set [2], the “survival rate … 80° C. 8 week” value worked out at 85.4%.

In the case of `CC[C@H](C)[C@H](NC(=O)CNC(=O)C(Cc1nnn[nH]1)NC(=O)[C@H](CO)NC(=O)[C@@H](N)Cc1c[nH]cn1)C(=O)N[C@@H](Cc1ccccc1)C(=O)N[C@@H](C)C(=O)NC(Cc1nnn[nH]1)C(=O)NC(C)(C)C(=O)N[C@@H](Cc1ccc(O)cc1)C(=O)NC(C)(C)C(=O)N[C@@H](CCCNC(=N)N)C(=O)N[C@@H](Cc1ccc(O)cc1)C(=O)N[C@@H](CCCNC(=N)N)C(=O)N[C@@H](CCCCN)C(=O)N[C@@H](CCC(N)=O)C(=O)N[C@@H](CCSC)C(=O)N[C@@H](C)C(=O)N[C@H](C(=O)N[C@@H](CCCCN)C(=O)N[C@@H](CCCCN)C(=O)N[C@@H](Cc1ccc(O)cc1)C(=O)N[C@@H](CC(C)C)C(=O)N[C@@H](C)C(=O)N[C@@H](C)C(=O)N[C@H](C(=O)N[C@@H](CC(C)C)C(N)=O)C(C)C)C(C)C` (stereo partly drawn) [Peptide 6, HSTzGI FATzAiY AiRYRK QMAVK KYLAA VL] (H-HS[ξAla(tetrazol-5-yl)]GIFA[ξAla(tetrazol-5-yl)][Aib]Y[Aib]RYRKQMAVKKYLAAVL-NH2), the “survival rate … 40° C. 4 week” value in data set [1] is given as 94.0%. Moreover, the “survival rate … 80° C. 8 week” value in data set [2] is 87.5%.

As for `CC[C@H](C)[C@H](NC(=O)CNC(=O)C(Cc1nnn[nH]1)NC(=O)[C@H](CO)NC(=O)[C@@H](N)Cc1c[nH]cn1)C(=O)N[C@@H](Cc1ccccc1)C(=O)N[C@@H](C)C(=O)NC(Cc1nnn[nH]1)C(=O)NC(C)(C)C(=O)N[C@@H](Cc1ccc(O)cc1)C(=O)N[C@@H](CO)C(=O)N[C@@H](CCCNC(=N)N)C(=O)N[C@@H](Cc1ccc(O)cc1)C(=O)N[C@@H](CCCNC(=N)N)C(=O)N[C@@H](CCCCN)C(=O)N[C@@H](CCC(N)=O)C(=O)N[C@@H](CCSC)C(=O)N[C@@H](C)C(=O)N[C@H](C(=O)N[C@@H](CCCCN)C(=O)N[C@@H](CCCCN)C(=O)N[C@@H](Cc1ccc(O)cc1)C(=O)N[C@@H](CC(C)C)C(=O)N[C@@H](C)C(=O)N[C@@H](C)C(=O)N[C@H](C(=O)N[C@@H](CC(C)C)C(N)=O)C(C)C)C(C)C` (stereo partly drawn) [Peptide 4, HSTzGI FATzAiY SRYRK QMAVK KYLAA VL] (H-HS[ξAla(tetrazol-5-yl)]GIFA[ξAla(tetrazol-5-yl)][Aib]YSRYRKQMAVKKYLAAVL-NH2), the “survival rate … 40° C. 4 week” value in data set [1] was found to be 95.4%. Further, the “survival rate … 80° C. 8 week” value in data set [2] came to 88.4%.

As to `CC[C@H](C)[C@H](NC(=O)CNC(=O)C(Cc1nnn[nH]1)NC(=O)[C@H](CO)NC(=O)[C@@H](N)Cc1c[nH]cn1)C(=O)N[C@@H](Cc1ccccc1)C(=O)N[C@H](C(=O)NC(Cc1nnn[nH]1)C(=O)NC(C)(C)C(=O)N[C@@H](Cc1ccc(O)cc1)C(=O)NC(C)(C)C(=O)N[C@@H](CCCNC(=N)N)C(=O)N[C@@H](Cc1ccc(O)cc1)C(=O)N[C@@H](CCCNC(=N)N)C(=O)N[C@@H](CCCCN)C(=O)N[C@@H](CCC(N)=O)C(=O)N[C@@H](CCSC)C(=O)N[C@@H](C)C(=O)N[C@H](C(=O)N[C@@H](CCCCN)C(=O)N[C@@H](CCCCN)C(=O)N[C@@H](Cc1ccc(O)cc1)C(=O)N[C@@H](CC(C)C)C(=O)N[C@@H](C)C(=O)N[C@@H](C)C(=O)N[C@H](C(=O)N[C@@H](CC(C)C)C(N)=O)C(C)C)C(C)C)[C@@H](C)O` (stereo partly drawn) [Peptide 7, HSTzGI FTTzAiY AiRYRK QMAVK KYLAA VL] (H-HS[ξAla(tetrazol-5-yl)]GIFT[ξAla(tetrazol-5-yl)][Aib]Y[Aib]RYRKQMAVKKYLAAVL-NH2), the “survival rate … 40° C. 4 week” value in data set [1] is given as 91.8%. Also, the “survival rate … 80° C. 8 week” value in data set [2] came to 83.5%.
